The subject of this test is HCT116 colorectal cancer cells. Description: Cisplatin sensitization assay (96 h cell viability MTS).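 Also: Test-compound concentration that lowers the Cisplatin IC50 by a set fold.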 The test is classed as cell-based. The note with it: compound and Cisplatin added simultaneously, Cisplatin sensitization value. The gist of the method: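 Compound and cisplatin added together as a full matrix of 2-fold serial dilutions from a top final concentration of 10 μM; cells incubated 96 h at 37° C, 5% CO2. Viability then read by MTS after 1 h further incubation; sensitization value reported in μM bins.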

We go through eleven compounds from patent US11370798B2 (Vertex Pharmaceuticals Incorporated, priority 2012, dated 2022).

On to `COC1CCN(c2ccncc2NC(=O)c2c(N)nn3cc(F)cnc23)CC1` [I-N-266, 2-amino-6-fluoro-N-(4-(4-methoxypiperidin-1-yl)pyridin-3-yl)pyrazolo[1,5-a]pyrimidine-3-carboxamide], for which the “Cisplatin Sensitization Assay” value is on record as “+++ (Cisplatin sensitization value of <0.02 μM)”.

Take `CN(C)CC1CCN(c2ccncc2NC(=O)c2c(N)nn3cc(F)cnc23)CC1` [I-N-267, 2-amino-N-(4-(4-((dimethylamino)methyl)piperidin-1-yl)pyridin-3-yl)-6-fluoropyrazolo[1,5-a]pyrimidine-3-carboxamide]: the “Cisplatin Sensitization Assay” value is reported as “+++ (Cisplatin sensitization value of <0.02 μM)”.

Consider `Nc1nn2cc(F)cnc2c1C(=O)Nc1cnccc1N1CCC(c2nnco2)CC1` [I-N-268, N-(4-(4-(1,3,4-oxadiazol-2-yl)piperidin-1-yl)pyridin-3-yl)-2-amino-6-fluoropyrazolo[1,5-a]pyrimidine-3-carboxamide], for which the “Cisplatin Sensitization Assay” value is recorded as “+++ (Cisplatin sensitization value of <0.02 μM)”.

With `Cc1ncn(-c2ccncc2NC(=O)c2c(N)nn3cc(F)cnc23)c1C` [I-N-269, 2-amino-N-(4-(4,5-dimethyl-1H-imidazol-1-yl)pyridin-3-yl)-6-fluoropyrazolo[1,5-a]pyrimidine-3-carboxamide], the “Cisplatin Sensitization Assay” value is “++ (Cisplatin sensitization value>0.02 μM but <0.2 μM)”.

For the compound `Nc1nn2cc(F)cnc2c1C(=O)Nc1cncc(F)c1N1CCCCC1` [I-N-270, 2-amino-6-fluoro-N-(5-fluoro-4-(piperidin-1-yl)pyridin-3-yl)pyrazolo[1,5-a]pyrimidine-3-carboxamide], the “Cisplatin Sensitization Assay” value is given as “+++ (Cisplatin sensitization value of <0.02 μM)”.

For `Nc1nn2cc(F)cnc2c1C(=O)Nc1cnccc1N1CCC(S(=O)(=O)N2CCC2)CC1` [I-N-271, 2-amino-N-(4-(4-(azetidin-1-ylsulfonyl)piperidin-1-yl)pyridin-3-yl)-6-fluoropyrazolo[1,5-a]pyrimidine-3-carboxamide], the “Cisplatin Sensitization Assay” value was “+++ (Cisplatin sensitization value of <0.02 μM)”.

Regarding `CN1CCOC2(CCN(c3c(F)cncc3NC(=O)c3c(N)nn4cc(F)cnc34)CC2)C1` [I-N-272, 2-amino-6-fluoro-N-(5-fluoro-4-(4-methyl-1-oxa-4,9-diazaspiro[5.5]undecan-9-yl)pyridin-3-yl)pyrazolo[1,5-a]pyrimidine-3-carboxamide], the “Cisplatin Sensitization Assay” value is recorded as “+++ (Cisplatin sensitization value of <0.02 μM)”.

As for `Nc1nn2cc(F)cnc2c1C(=O)Nc1cncc(F)c1N1CCC(S(=O)(=O)N2CCN3CCC2CC3)CC1` [I-N-273, N-(4-(4-(1,4-diazabicyclo[3.2.2]nonan-4-ylsulfonyl)piperidin-1-yl)-5-fluoropyridin-3-yl)-2-amino-6-fluoropyrazolo[1,5-a]pyrimidine-3-carboxamide], the “Cisplatin Sensitization Assay” value was “+++ (Cisplatin sensitization value of <0.02 μM)”.

Regarding `Nc1nn2cc(F)cnc2c1C(=O)Nc1cncc(F)c1N1CCN(C(=O)C2CCOC2)CC1` (centres unmarked) [I-N-274, 2-amino-6-fluoro-N-(5-fluoro-4-(4-(tetrahydrofuran-3-carbonyl)piperazin-1-yl)pyridin-3-yl)pyrazolo[1,5-a]pyrimidine-3-carboxamide], the “Cisplatin Sensitization Assay” value is “+++ (Cisplatin sensitization value of <0.02 μM)”.

Regarding `CC(=O)N1CCN(c2c(F)cncc2NC(=O)c2c(N)nn3cc(F)cnc23)CC1` [I-N-275, N-(4-(4-acetylpiperazin-1-yl)-5-fluoropyridin-3-yl)-2-amino-6-fluoropyrazolo[1,5-a]pyrimidine-3-carboxamide], the “Cisplatin Sensitization Assay” value was “+++ (Cisplatin sensitization value of <0.02 μM)”.

Regarding `Nc1nn2cc(F)cnc2c1C(=O)Nc1cncc(F)c1N1CCN(C(=O)C2CC2)CC1` [I-N-276, 2-amino-N-(4-(4-(cyclopropanecarbonyl)piperazin-1-yl)-5-fluoropyridin-3-yl)-6-fluoropyrazolo[1,5-a]pyrimidine-3-carboxamide], the “Cisplatin Sensitization Assay” value is listed as “+++ (Cisplatin sensitization value of <0.02 μM)”.
